Patent US9695155B2, “Herbicidal substituted pyrimidinyloxy benzene compounds” (E. I. DU PONT DE NEMOURS AND COMPANY, priority 2013, dated 2017)

Assays:
bluegrass = experiment: Test D postemergence; assay type: in vivo, Poa annua; settings: Poa annua, post-emergence, Postemergence, scale 0 to 100 (0 no effect, 100 complete control), read-out: Plant response rating, Bluegrass
Method in brief: (§1)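 Visual rating vs untreated controls, 0 = no effect, 100 = complete control, taken 7–21 d after treatment. Pre: silt loam soil. Post: potting medium, plants 2–18 cm, 1–4 leaf. Formulation: non-phytotoxic solvent mix + surfactant.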

canarygrass = experiment: Test D postemergence; assay type: in vivo, Phalaris minor; settings: Phalaris minor, post-emergence, scale 0 to 100 (0 no effect, 100 complete control), read-out: Plant response rating, Canarygrass
Method in brief: as §1

speedwell = experiment: Test D postemergence; assay type: in vivo, Veronica persica; settings: Veronica persica, post-emergence, scale 0 to 100 (0 no effect, 100 complete control), read-out: Plant response rating, Speedwell
Method in brief: as §1

barnyardgrass = experiment: Test E postemergence; assay type: in vivo, Echinochloa crus-galli; settings: Echinochloa crus-galli, post-emergence, read-out: Plant response rating, Barnyardgrass
Method in brief: (§2)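 Test chemicals formulated in a non-phytotoxic solvent mixture containing a surfactant were applied preemergence to seeds in silt loam soil or postemergence to plants at the 1- to 4-leaf stage in potting mix. After 14 to 21 days in a greenhouse, injury was visually rated against controls on a 0-100 scale (0 = no effect, 100 = complete control).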

waterhemp = experiment: Test E postemergence; assay type: in vivo, Amaranthus rudis; settings: Amaranthus tuberculatus, post-emergence, read-out: Plant response rating, Waterhemp
Method in brief: as §2

[1] = test system: waterhemp_RES2 (ALS & HPPD resistant common waterhemp); experiment: Test E postemergence; assay type: in vivo, Amaranthus rudis; settings: Amaranthus tuberculatus, post-emergence, read-out: Plant response rating, Waterhemp_RES2
Method in brief: as §2

wild radish = experiment: Test D postemergence; assay type: in vivo, Raphanus raphanistrum; settings: Raphanus raphanistrum, post-emergence, scale 0 to 100 (0 no effect, 100 complete control), read-out: Plant response rating, Radish, Wild
Method in brief: as §1

winter barley = experiment: Test D postemergence; assay type: in vivo, Hordeum vulgare; settings: Hordeum vulgare, post-emergence, Postemergence, scale 0 to 100 (0 no effect, 100 complete control), read-out: Plant response rating, Barley, Winter
Method in brief: as §1

spring barley = experiment: Test D postemergence; assay type: in vivo, Hordeum vulgare; settings: Hordeum vulgare, post-emergence, Postemergence, scale 0 to 100 (0 no effect, 100 complete control), read-out: Plant response rating, Barley, Spring
Method in brief: as §1

bromegrass, downy = experiment: Test D postemergence; assay type: in vivo, Bromus tectorum; settings: Bromus tectorum, post-emergence, Postemergence, scale 0 to 100 (0 no effect, 100 complete control), read-out: Plant response rating, Bromegrass, Downy
Method in brief: as §1

wild buckwheat [2] = experiment: Test D preemergence; assay type: in vivo, Polygonum convolvulus; settings: Fallopia convolvulus, pre-emergence, scale 0-100, read-out: Plant response rating, Buckwheat, Wild
Method in brief: as §1

wild buckwheat [3] = experiment: Test D postemergence; assay type: in vivo, Polygonum convolvulus; settings: Fallopia convolvulus, post-emergence, Postemergence, scale 0 to 100 (0 no effect, 100 complete control), read-out: Plant response rating, Buckwheat, Wild
Method in brief: as §1

field bindweed = experiment: Test E postemergence; assay type: in vivo, Convolvulus arvensis; settings: Convolvulus arvensis, post-emergence, read-out: Plant response rating, Field Bindweed
Method in brief: as §2

[4] = Postemergence, 31 g ai/ha, scale 0 to 100
[5] = Postemergence, 62 g ai/ha, scale 0 to 100
[6] = Postemergence, 125 g ai/ha, scale 0 to 100
[7] = Postemergence, 250 g ai/ha, scale 0 to 100
[8] = postemergence, 16 g ai/ha, scale 0 to 100, 0 no effect, 100 complete control

Structure (SMILES): N#Cc1cccc(Oc2ncc(Cl)cn2)c1-n1cc(C(F)(F)F)cn1 [Compound 58, 3-[(5-chloro-2-pyrimidinyl)oxy]-2-[4-(trifluoromethyl)-1H-pyrazol-1-yl]benzonitrile]
- pest or weed control at 31 g/ha (bluegrass; 31 g ai/ha): 25%
- pest or weed control at 62 g/ha (bluegrass; 62 g ai/ha): 35%
- pest or weed control at 125 g/ha (bluegrass; 125 g ai/ha): 45%
- pest or weed control at 250 g/ha (bluegrass; 250 g ai/ha): 55%
- pest or weed control at 31 g/ha (canarygrass; 31 g ai/ha): 35%
- pest or weed control at 62 g/ha (canarygrass; 62 g ai/ha): 40%
- pest or weed control at 125 g/ha (canarygrass; 125 g ai/ha): 50%
- pest or weed control at 250 g/ha (canarygrass; 250 g ai/ha): 70%
- pest or weed control at 31 g/ha (speedwell; 31 g ai/ha): 100%
- pest or weed control at 62 g/ha (speedwell; 62 g ai/ha): 100%
- pest or weed control at 125 g/ha (speedwell; 125 g ai/ha): 100%
- pest or weed control at 250 g/ha (speedwell; 250 g ai/ha): 100%
- pest or weed control at 31 g/ha (barnyardgrass; [4]): 5%
- pest or weed control at 62 g/ha (barnyardgrass; [5]): 20%
- pest or weed control at 125 g/ha (barnyardgrass; [6]): 30%
- pest or weed control at 250 g/ha (barnyardgrass; [7]): 70%
- pest or weed control at 16 g/ha (barnyardgrass; [8]): 0%
- pest or weed control at 31 g/ha (waterhemp; [4]): 85%
- pest or weed control at 62 g/ha (waterhemp; [5]): 95%
- pest or weed control at 125 g/ha (waterhemp; [6]): 100%
- pest or weed control at 250 g/ha (waterhemp; [7]): 100%
- pest or weed control at 16 g/ha (waterhemp; [8]): 75%
- pest or weed control at 31 g/ha [1, 4]: 90%
- pest or weed control at 62 g/ha [1, 5]: 90%
- pest or weed control at 125 g/ha [1, 6]: 95%
- pest or weed control at 250 g/ha [1, 7]: 100%
- pest or weed control at 16 g/ha [1, 8]: 80%
- pest or weed control at 31 g/ha (wild radish; 31 g ai/ha): 65%
- pest or weed control at 62 g/ha (wild radish; 62 g ai/ha): 70%
- pest or weed control at 125 g/ha (wild radish; 125 g ai/ha): 90%
- pest or weed control at 250 g/ha (wild radish; 250 g ai/ha): 95%
- plant injury at 31 g/ha (winter barley; 31 g ai/ha): 10%
- plant injury at 62 g/ha (winter barley; 62 g ai/ha): 15%
- plant injury at 125 g/ha (winter barley; 125 g ai/ha): 25%
- plant injury at 250 g/ha (winter barley; 250 g ai/ha): 50%
- plant injury at 31 g/ha (spring barley; 31 g ai/ha): 15%
- plant injury at 62 g/ha (spring barley; 62 g ai/ha): 20%
- plant injury at 125 g/ha (spring barley; 125 g ai/ha): 30%
- plant injury at 250 g/ha (spring barley; 250 g ai/ha): 40%
- pest or weed control at 31 g/ha (bromegrass, downy; 31 g ai/ha): 25%
- pest or weed control at 62 g/ha (bromegrass, downy; 62 g ai/ha): 30%
- pest or weed control at 125 g/ha (bromegrass, downy; 125 g ai/ha): 35%
- pest or weed control at 250 g/ha (bromegrass, downy; 250 g ai/ha): 35%
- pest or weed control at 31 g/ha (wild buckwheat [2]; 31 g ai/ha): 100%
- pest or weed control at 62 g/ha (wild buckwheat [2]; 62 g ai/ha): 100%
- pest or weed control at 125 g/ha (wild buckwheat [2]; 125 g ai/ha): 100%
- pest or weed control at 250 g/ha (wild buckwheat [2]; 250 g ai/ha): 100%
- pest or weed control at 31 g/ha (wild buckwheat [3]; 31 g ai/ha): 90%
- pest or weed control at 62 g/ha (wild buckwheat [3]; 62 g ai/ha): 100%
- pest or weed control at 125 g/ha (wild buckwheat [3]; 125 g ai/ha): 100%
- pest or weed control at 250 g/ha (wild buckwheat [3]; 250 g ai/ha): 100%
- pest or weed control at 31 g/ha (field bindweed; [4]): 60%
- pest or weed control at 62 g/ha (field bindweed; [5]): 70%
- pest or weed control at 125 g/ha (field bindweed; [6]): 70%
- pest or weed control at 250 g/ha (field bindweed; [7]): 80%
- pest or weed control at 16 g/ha (field bindweed; [8]): 50%
